According to patent publication US9562035B2, “Benzamide derivative useful as FASN inhibitors for the treatment of cancer” (Janssen Pharmaceutica NV, priority 2013, dated 2017):

Columns and labels:
[1] = Toxicity Huh7-ATP (cytotoxicity alongside the HCV replicon assay); conditions: human, Huh7 cells
[2] = Cytotoxicity in HeLa cells (ATPlite); type: cell-based; conditions: human, in parallel to RSV assay, read-out: CC50 (Toxicity HeLa Cells)
Protocol: Black 96-well clear-bottom microtiter plates (Corning, Amsterdam, The Netherlands) were filled in duplicate using a customized robot system with serial 4-fold dilutions of test compound in a final volume of 50 μl culture medium [RPMI medium without phenol red, 10% FBS, 0.04% gentamycin (50 mg/mL) and 0.5% DMSO]. Then, 100 μl of a HeLa cell suspension (5×10^4 cells/mL) in culture medium was added to each well followed by the addition of 50 μl rgRSV224 (MOI=0.02) virus in culture medium using a multidrop dispenser (Thermo Scientific, Erembodegem, Belgium). rgRSV224 virus is an engineered virus that includes an additional GFP gene (HALLAK, L. K., et. al., “Glycosaminoglycan sulfation requirements for respiratory syncytial virus infection.” J. Virol., 2000, pp 10508-10513, Vol. […]). Medium, virus- and mock-infected controls were included in each test. Cells were incubated at 37° C. in a 5% CO2 atmosphere. Three days post-virus exposure, viral replication was quantified by measuring GFP expression in the cells by a MSM laser microscope (Tibotec, Beerse, Belgium). […] In parallel, test compounds were incubated for three days in a set of white 96-well microtitier plates (Corning) and the cytotoxicity of compounds in HeLa cells was determined by measuring the ATP content of the cells using the ATPlite kit (PerkinElmer, Zaventem, Belgium) according to the manufacturer's instructions. […]

## Cc1ccc(C(=O)N2CCC(c3ccc(-c4cnn(C)c4)cc3)CC2)cc1NC(=O)c1ccc(NC(C)C)nc1 [Compound #32, 6-(isopropylamino)-N-(2-methyl-5-(4-(4-(1-methyl-1H-pyrazol-4-yl)phenyl)piperidine-1-carbonyl)phenyl)nicotinamide]
[1]
  CC50: > 25 µM
[2]
  CC50 at 3 days: > 25 µM
